According to ChEMBL document CHEMBL1144034, “Synthesis and anti-protozoal activity of C2-substituted polyazamacrocycles” (Bioorg Med Chem Lett, 2008):

What was measured:
Plasmodium falciparum = test: Antiprotozoal activity against Plasmodium falciparum; assay type: functional, organism-based
[1] = Partition coefficient, log P of the compound; assay type: physicochemical; conditions: octanol/water
Trypanosoma brucei = test: Antiprotozoal activity against Trypanosoma brucei by Alamar blue assay; assay type: functional, organism-based
[2] = Cytotoxicity against HEK cells; assay type: cell-based; conditions: Homo sapiens, HEK293

EC50 (Plasmodium falciparum) [µM]	logP [1]	EC50 (Trypanosoma brucei) [µM]	Compound	EC50 [2] [µM]
> 100	-1.8	> 200	C1CNCCNCCNCCN1	5
13	-0.4	> 200	O=[N+]([O-])c1ccc(C2CNCCNCCNCCN2)cc1 (configuration not stated)	> 200
26	-0.2	> 200	c1ccc(C2CNCCNCCNCCN2)cc1 (configuration not stated)	> 200
> 100	-0.1	133	CC(C)(C)C1CNCCNCCNCCN1 (configuration not stated)	> 200
46.7	-0.4	72.3	c1csc(C2CNCCNCCNCCN2)c1 (configuration not stated)	> 200
5.8	0.7	21.8	Brc1ccc(C2CNCCNCCNCCN2)cc1 (configuration not stated)	> 200
5	0.8	6.8	FC(F)(F)c1ccc(C2CNCCNCCNCCN2)cc1 (configuration not stated)	73
2.3	0.8	2.8	Clc1ccc(C2CNCCNCCNCCN2)cc1 (configuration not stated)	181
1.7	1	6.9	c1ccc2cc(C3CNCCNCCNCCN3)ccc2c1 (configuration not stated)	> 200
< 1.5	2.2		c1ccc2c(c1)ccc1cc(C3CNCCNCCNCCN3)ccc12 (configuration not stated)	
4.8	1.7	6.8	FC(F)(F)c1cc(C2CNCCNCCNCCN2)cc(C(F)(F)F)c1 (configuration not stated)	61
26	-0.1	> 200	COc1ccc(C2CNCCNCCNCCN2)cc1 (configuration not stated)	> 200
1.3	1.8	2.6	c1ccc2c(c1)Cc1cc(C3CNCCNCCNCCN3)ccc1-2 (configuration not stated)	26
		0.006	N=C(N)c1ccc(OCCCCCOc2ccc(C(=N)N)cc2)cc1 [PENTAMIDINE]	

Compound	EC50 (Plasmodium falciparum) [µM]	logP [1]	EC50 (Trypanosoma brucei) [µM]	EC50 [2] [µM]
CCN(CC)CCCC(C)Nc1ccnc2cc(Cl)ccc12 (configuration not stated) [CHLOROQUINE]	0.008			
